Measured values published in PMC6359803, “Inhibition of inflammatory response in human keratinocytes by magnetic nanoparticles functionalized with PBP10 peptide derived from the PIP2-binding site of human plasma gelsolin” (Journal of Nanobiotechnology, 2019).
Read-outs that look alike come from different tables or passages of the source. Ends that are not written are not given here. Peptide text beside a SMILES is read from it. * marks the point of attachment. RhodamineB = CCN(CC)c1ccc2c(-c3ccccc3C(=O)*)c3ccc(=[N+](CC)CC)cc-3oc2c1

Columns and labels:
[1] = MTT viability / metabolic activity assay; type: cell-based, human; details: human
Protocol: (§1) The viability and metabolic activity of cells were measured using a microculture tetrazolium test (MTT; 3-(4,5-dimethylthiazol-2-yl)-2,5-diphenyltetrazolium bromide) as described previously. HaCaT cells were seeded at a density of 5 × 10^4 cells/well in transparent 96-well plates and cultured until ~ 85% confluence; after that medium was replaced with serum-free medium and cells were serum starved for another 12 h. To determine the non-toxic concentrations, the peptides and their magnetic derivatives in concentrations ranging from 1 to 50 µg/mL were added to each well and incubated for 24 h at 37 °C under 5% CO2. The optical density at 490 nm was assessed after 2 h incubation of plates with MTT solution (5 mg/mL) and the addition of formazan salt in dimethyl sulfoxide (DMSO). The absorbance value obtained in cultures of control cells (with solvents alone) was taken as 100%. The average of all the experiments is shown as cell viability percentage in comparison to the control.

[2] = Fluorescence of unbound peptide after magnetic separation; type: physicochemical; details: fluorescence relative to 1 mg/mL free peptide
Protocol: PBP10-containing nanosystems were obtained by non-covalent bonding including electrostatic interactions or chemisorption of thiol groups to the gold surface. Nanoparticles (MNP@NH2 or MNP@Au) were dispersed in PBS to obtain solutions of 10 mg/mL concentration. Then nanoparticles were diluted to the concentration of 1 mg/mL and were mixed with the appropriate amount (1:1 volume ratio) of PBP peptide or PBP modified by cysteine and rhodamine (1 mg/mL solutions in PBS buffer). Prepared solutions were incubated for 2 days (nucleation) and used for further investigations. In order to avoid the loss of agents during the preparation process, no further purification of nanosystems was performed. To evaluate the efficiency of peptide attachment, fluorescence of unbound PBP10 peptides in solutions after magnetic separation of nanosystems was measured.

[3] = system: S. aureus A1; assay: Killing assay (CFU counting); type: cell-based, Staphylococcus aureus; details: S. aureus A1, 1 h, doses 2-10 µg/mL, dose-dependent
Protocol: (§2) To assess the bactericidal activity of PBP10-derived peptides and PBP10-containing nanosystems against E. coli and S. aureus bacterial strains, a killing assay based on counting colony forming units (CFU) was performed. For this purpose, E. coli and S. aureus strains were grown to mid-log phase at 37 °C, re-suspended in PBS, brought to 10^8 CFU/ml (which corresponds to 0.5 OD at a wavelength 600 nm) and diluted 1:100 to obtain sample containing approx. 10^6 CFU/mL. Bacteria were then added to PBS containing different concentrations of PBP10, RhB-PBP10 and RhB-PBP10-Cys and their nanosystems at doses of 2, 5 and 10 µg/mL. After 1 h of incubation at 37 °C, the plates were transferred to ice and suspensions were diluted 10- to 1000-fold in PBS. Then, 10 μL aliquots were spotted on agar plates for overnight culture at 37 °C in order to determine CFUs.

[4] = system: E. coli RS218; assay: Killing assay (CFU counting); type: cell-based, Escherichia coli; details: E. coli RS218, 1 h, doses 2-10 µg/mL, dose-dependent
Protocol: as §2

[5] = system: HaCaT cells; assay: Nitric oxide assay (nitrite, Griess reagent); type: cell-based, human; details: 1 µg/mL LTA-stimulated HaCaT, 10 µg/mL agent, 24 h
Protocol: The nitric oxide assay was performed as described previously and the quantity of nitrite in the culture medium was measured as an indicator of NO production. Amounts of nitrite, a stable metabolite of NO, were measured using the Griess reagent (1% sulfanilamide and 0.1% naphthylethylenediamine dihydrochloride in 2.5% phosphoric acid). Briefly, 5 × 10^4 HaCaT cells were seeded in transparent 96-well plates and cultured until 85% confluence was reached. After that, cells were washed with PBS, and agents at final concentrations of 2, 5 and 10 µg/mL were added to each well. Simultaneously, keratinocytes were stimulated with 1 µg/mL LPS (E. coli 026:B6), 1 µg/mL LTA (from Staphylococcus aureus) or heat-inactivated suspensions of E. coli or S. aureus (~ 10^6 CFU/mL) and incubated in serum-free medium for 24 h. Next, 50 µL of cell culture medium was mixed with 50 µL of Griess reagent, incubated at room temperature for 15 min, and the absorbance at 540 nm was measured in a microplate reader. Fresh culture medium was used as a blank in every experiment.

[6] = system: HaCaT cells; assay: ROS formation (DFCH-DA fluorescence); type: cell-based, human; details: 1 µg/mL LPS-stimulated HaCaT, 10 µg/mL agent, 24 h
Protocol: The generation of reactive oxygen species from stimulated HaCaT cells was measured using 2′,7′-dichlorofluorescein diacetate (DFCH-DA) as the fluorescent probe. For this purpose, 5 × 10^4 of HaCaT cells, cultured until ~ 85% confluence and incubated simultaneously with peptides or their magnetic derivatives at concentrations of 2, 5 and 10 µg/mL and with 1 µg/mL LPS/LTA or heat-inactivated bacteria for 24 h. Next, cells were washed twice with PBS, and DFCH-DA in PBS at the concentration of 20 µM was added. Fluorescence was measured for 90 min immediately after the addition of the dye at excitation/emission wavelengths of 488/535 nm.

[7] = system: HaCaT cells; assay: IL-8 release (ELISA); type: cell-based, human; details: 24 h
Protocol: In order to assess release of interleukin-8 (IL-8) from stimulated keratinocytes, 5 × 10^4 HaCaT cells were treated with agents at concentrations of 2, 5 and 10 µg/mL and stimulated with 1 µg/mL LPS/LTA. The medium from LPS/LTA-treated cells was harvested after 24 h of incubation and the level of IL-8 was evaluated using an IL-8 Human ELISA Kit (Thermo Fisher Scientific).

[8] = system: A549 cells; assay: Cell stiffness by atomic force microscopy (AFM) indentation; type: cell-based, human; details: 1 µg/mL LPS 24 h, agent 5 µg/mL
Protocol: The stiffness of cells after 24 h stimulation with 1 µg/mL LPS was measured by indentation using atomic force microscopy (Nanowizard 4 Bioscience AFM, JPK Instruments, Germany). Adenocarcinomic human alveolar basal epithelial cells (A549 ATCC® CCL-185™) were cultured in high-glucose DMEM supplemented with 10% FBS at 37 °C with 5% CO2, placed on Ø 35 mm Petri dishes and allowed to attach and spread for 24 h before simultaneous stimulation with 1 µg/mL LPS (E. coli 026:B6) and treatment with 5 µg/mL of PBP10 or PBP10-based nanosystems. Immediately before the experiment, cells were placed in a CO2-independent buffer (Thermo Fisher Scientific, USA) to prevent changes in pH of the cellular environment during analysis. Elasticity measurements were taken with AFM working in force spectroscopy mode in liquid conditions, and cantilevers (ORC8, Bruker) with a spring constant of 0.1 N/m were used. From each tested cell, up to 64 force-indentation curves were collected in a grid of 8 × 8 pixels corresponding to a scan area of 10 × 10 µm with a maximal force of 2 nN. For indentation measurements, more than 1100 force-distance curves were recorded for each group from at least ten different cells. To determine the apparent Young’s modulus of different cells, force-indentation curves were fit to the Hertz contact model.

[9] = system: HaCaT cells; assay: MTT viability / metabolic activity assay; type: cell-based, human; details: 24 h
Protocol: as §1

Question: For `CCN(CC)c1ccc2c(-c3ccccc3C(=O)N[C@@H](CCC(N)=O)C(=O)N[C@@H](CCCNC(=N)N)C(=O)N[C@@H](CC(C)C)C(=O)N[C@@H](Cc3ccccc3)C(=O)N[C@@H](CCC(N)=O)C(=O)N[C@H](C(=O)N[C@@H](CCCCN)C(=O)NCC(=O)N[C@@H](CCCNC(=N)N)C(=O)N[C@@H](CCCNC(=N)N)C(=O)N[C@@H](CS)C(=O)O)C(C)C)c3ccc(=[N+](CC)CC)cc-3oc2c1` [RhB-PBP10-Cys] (RhodamineB-QRLFQVKGRRC-OH; N-terminus and C-terminus assumed), which viability at 24 h, 10 µg/mL ([1]; 10 µg/mL, 24 h, control = 100%, read-out: viability of HaCaT cells) is on record?
Answer: Its viability at 24 h, 10 µg/mL is 80 ± 6.6%.

Question: And the “% of remaining peptide (unbound) in solution after magnetic separation” value [2]?
Answer: Its value is ≤ 5%.

Question: And the “decrease of bacterial viability” value [3]?
Answer: Its value is “more than 95%”.

Question: What about the “decrease of bacterial viability” value [4] of the same compound?
Answer: Its value is “more than 95%”.

Question: For `CCN(CC)c1ccc2c(-c3ccccc3C(=O)N[C@@H](CCC(N)=O)C(=O)N[C@@H](CCCNC(=N)N)C(=O)N[C@@H](CC(C)C)C(=O)N[C@@H](Cc3ccccc3)C(=O)N[C@@H](CCC(N)=O)C(=O)N[C@H](C(=O)N[C@@H](CCCCN)C(=O)NCC(=O)N[C@@H](CCCNC(=N)N)C(=O)N[C@@H](CCCNC(=N)N)C(=O)O)C(C)C)c3ccc(=[N+](CC)CC)cc-3oc2c1` [RhB-PBP10, rhodamine B-QRLFQVKGRR] (RhodamineB-QRLFQVKGRR-OH; N-terminus and C-terminus assumed), which “NO production (% of untreated stimulated control)” value [5] is on record?
Answer: The value was 63.16 ± 14.01%.

Question: What about the “ROS production (% of untreated stimulated control)” value [6] of the same compound?
Answer: The value was 30.33 ± 3.31%.

Question: What about the “decrease of bacterial viability” value [3] of the same compound?
Answer: Its value is “more than 95%”.

Question: And the “decrease of bacterial viability” value [4]?
Answer: The value was “more than 95%”.

Question: For “lipoteichoic acid from Staphylococcus aureus [LTA]”, which IL-8 level ([7]; 1 µg/mL LTA-stimulated HaCaT) is on record?
Answer: Its IL-8 level is 749.2 ± 55.81 pg/mL.

Question: What does the source list for “Lipopolysaccharide from Escherichia coli O26:B6 [LPS]”?
Answer: Young's modulus ([8]; indentation depth 1 µm): 3.1 ± 0.08 kPa; Young's modulus ([8]; indentation depth 300 nm): 4.3 ± 0.07 kPa; IL-8 level ([7]; 1 µg/mL LPS-stimulated HaCaT): 504.9 ± 49.39 pg/mL

Question: What does the source list for QRLFQVKGRR [PBP10, QRLFQVKGRR]?
Answer: IC50 [9]: > 50 µg/mL; viability at 24 h, 10 µg/mL [1]: 83 to 101%
